Values of other authors as cited in patent US9579280B2, “Controlled release delivery system for nasal applications and method of treatment” (MATTERN PHARMA AG, priority 2003, dated 2017).
Read-outs that look alike come from different tables or passages of the source.

Assays:
[1] = target: T1, sex hormone binding globulin (SHBG) (Homo sapiens, UniProt P04278)
T1 sequence (P04278 30-402): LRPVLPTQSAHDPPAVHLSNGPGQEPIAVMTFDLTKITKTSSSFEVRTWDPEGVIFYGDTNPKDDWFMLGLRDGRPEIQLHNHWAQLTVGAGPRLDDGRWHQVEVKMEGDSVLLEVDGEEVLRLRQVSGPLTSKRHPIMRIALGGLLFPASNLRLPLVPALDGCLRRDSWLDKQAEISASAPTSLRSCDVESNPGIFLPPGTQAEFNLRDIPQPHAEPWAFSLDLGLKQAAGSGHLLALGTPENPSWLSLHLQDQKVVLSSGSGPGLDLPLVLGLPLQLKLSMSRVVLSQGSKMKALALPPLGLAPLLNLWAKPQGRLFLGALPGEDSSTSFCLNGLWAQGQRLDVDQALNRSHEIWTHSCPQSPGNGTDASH

[2] = relative to water
[3] = nasal
female sexual response = settings: for sexual arousal: sublingual or single vaginal dose

Q: What does the source list for `C[C@]12CC[C@H]3[C@@H](CCC4=CC(=O)CC[C@@]43C)[C@@H]1CC[C@@H]2O` [Testosterone, testosterone]?
A: fraction of circulating plasma testosterone bound to SHBG [1]: Approximately 40%; unbound (free) fraction ([1]; in men): 2%; unbound (free) fraction ([1]; in women): up to 3%; solubility in vegetable oil [2]: somewhat more soluble in vegetable oil

Q: What does the source list for `CN(C)CC(=O)O[C@H]1CC[C@H]2[C@@H]3CCC4=CC(=O)CC[C@]4(C)[C@H]3CC[C@]12C` [testosterone 17β-N,N-dimethylglycinate]?
A: elimination half-life [3]: about fifty-five; serum levels compared with intravenous administration [3]: equal to intravenous administration; time to peak plasma concentration ([3]; 25 mg dose): twelve; time to peak plasma concentration ([3]; 50 mg dose): twenty

Q: For `CCC(=O)O[C@H]1CC[C@H]2[C@@H]3CCC4=CC(=O)CC[C@]4(C)[C@H]3CC[C@]12C` [testosterone propionate], which “time of testosterone and free testosterone peak” value (female sexual response; single vaginal dose) is on record?
A: 5.5 h

Q: What about the sexual arousal (female sexual response) of the same compound?
A: does not trigger sexual arousal

Q: Which sexual arousal (female sexual response) does the source give for `CCCCCCCCCCC(=O)O[C@H]1CC[C@H]2[C@@H]3CCC4=CC(=O)CC[C@]4(C)[C@H]3CC[C@]12C` [testosterone undecanoate] here?
A: triggers sexual arousal
